Source: ChEMBL document CHEMBL1201862, “PubChem BioAssay data set” (2004)
The source made the active and inactive calls.

Columns and labels:
Streptococcus = test: Group A Streptococcus viability loss, dose response, counter-screen for streptokinase expression inhibitor project, luminescence, BacTiterGlo (AID 1915); format: functional, organism-based;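 note: potency for reduction of bacterial viability or growth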
Protein RecA = biological target: T1, Protein RecA (Mycobacterium tuberculosis, UniProt P9WHJ3); test: Fluorescence Cell-Free Homogeneous Dose Retest to Identify Inhibitors of RecA-Intein Splicing Activity. [Related pubchem assays (depositor defined):AID2097, AID2223, AID489010, AID492950]; format: functional
T1 sequence (P9WHJ3 whole entry): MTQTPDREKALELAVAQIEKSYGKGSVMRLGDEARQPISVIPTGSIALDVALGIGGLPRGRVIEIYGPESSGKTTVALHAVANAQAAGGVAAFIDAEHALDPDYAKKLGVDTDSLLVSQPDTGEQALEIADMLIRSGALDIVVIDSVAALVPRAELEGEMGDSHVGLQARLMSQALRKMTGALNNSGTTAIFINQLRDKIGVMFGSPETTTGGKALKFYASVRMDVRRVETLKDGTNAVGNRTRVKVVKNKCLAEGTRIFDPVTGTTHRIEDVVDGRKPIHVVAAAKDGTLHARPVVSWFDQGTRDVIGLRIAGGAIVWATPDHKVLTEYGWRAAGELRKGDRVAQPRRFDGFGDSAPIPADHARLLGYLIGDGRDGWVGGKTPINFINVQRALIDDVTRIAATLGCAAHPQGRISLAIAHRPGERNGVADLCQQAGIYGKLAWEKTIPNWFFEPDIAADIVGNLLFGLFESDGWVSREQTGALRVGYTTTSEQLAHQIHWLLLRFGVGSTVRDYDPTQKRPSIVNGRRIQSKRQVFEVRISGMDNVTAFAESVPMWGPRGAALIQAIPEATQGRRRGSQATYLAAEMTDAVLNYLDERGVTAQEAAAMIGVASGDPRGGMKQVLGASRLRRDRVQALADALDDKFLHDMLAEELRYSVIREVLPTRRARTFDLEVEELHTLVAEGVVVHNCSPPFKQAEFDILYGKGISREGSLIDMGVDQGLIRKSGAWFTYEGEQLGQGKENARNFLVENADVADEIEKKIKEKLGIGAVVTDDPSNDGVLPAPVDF

Streptokinase A = biological target: T2, Streptokinase A (Streptococcus pyogenes serotype M1, UniProt P10520); test: S. pyogenes streptokinase expression inhibitors, potency, dose response, plasminogen activation absorbance, OD405 (AID 1914); format: functional, Streptococcus pyogenes M1 GAS;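 note: secreted streptokinase activity via plasminogen activation per viability signal from cell pellet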
T2 sequence (P10520 whole entry): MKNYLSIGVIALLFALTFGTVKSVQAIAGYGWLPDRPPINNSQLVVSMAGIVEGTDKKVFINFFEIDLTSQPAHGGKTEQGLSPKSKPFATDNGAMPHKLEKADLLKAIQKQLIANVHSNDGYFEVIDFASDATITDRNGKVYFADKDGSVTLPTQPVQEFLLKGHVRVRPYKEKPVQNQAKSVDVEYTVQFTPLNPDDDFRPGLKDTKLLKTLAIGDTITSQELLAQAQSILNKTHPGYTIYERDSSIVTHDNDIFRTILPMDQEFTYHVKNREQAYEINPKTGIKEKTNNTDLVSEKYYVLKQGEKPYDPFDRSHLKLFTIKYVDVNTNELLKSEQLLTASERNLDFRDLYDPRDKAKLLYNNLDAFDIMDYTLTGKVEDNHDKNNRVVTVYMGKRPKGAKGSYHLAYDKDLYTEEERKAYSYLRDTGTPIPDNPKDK

[1] = system: Streptococcus sp. 'group A'; test: growth inhibition of control SK(-) GAS strain, dose response, counter-screen for streptokinase expression inhibitor project, luminescence, kanamycin, BacTiterGlo, confirmation (AID 1900); format: functional, organism-based
[2] = biological target: T3, Replicative DNA helicase DnaB (Mycobacterium tuberculosis, UniProt P9WMR3); test: DnaB intein splicing inhibitors, dose response, biochemical, cell-free fluorescence (AID 449749); format: functional
T3 sequence (P9WMR3 whole entry): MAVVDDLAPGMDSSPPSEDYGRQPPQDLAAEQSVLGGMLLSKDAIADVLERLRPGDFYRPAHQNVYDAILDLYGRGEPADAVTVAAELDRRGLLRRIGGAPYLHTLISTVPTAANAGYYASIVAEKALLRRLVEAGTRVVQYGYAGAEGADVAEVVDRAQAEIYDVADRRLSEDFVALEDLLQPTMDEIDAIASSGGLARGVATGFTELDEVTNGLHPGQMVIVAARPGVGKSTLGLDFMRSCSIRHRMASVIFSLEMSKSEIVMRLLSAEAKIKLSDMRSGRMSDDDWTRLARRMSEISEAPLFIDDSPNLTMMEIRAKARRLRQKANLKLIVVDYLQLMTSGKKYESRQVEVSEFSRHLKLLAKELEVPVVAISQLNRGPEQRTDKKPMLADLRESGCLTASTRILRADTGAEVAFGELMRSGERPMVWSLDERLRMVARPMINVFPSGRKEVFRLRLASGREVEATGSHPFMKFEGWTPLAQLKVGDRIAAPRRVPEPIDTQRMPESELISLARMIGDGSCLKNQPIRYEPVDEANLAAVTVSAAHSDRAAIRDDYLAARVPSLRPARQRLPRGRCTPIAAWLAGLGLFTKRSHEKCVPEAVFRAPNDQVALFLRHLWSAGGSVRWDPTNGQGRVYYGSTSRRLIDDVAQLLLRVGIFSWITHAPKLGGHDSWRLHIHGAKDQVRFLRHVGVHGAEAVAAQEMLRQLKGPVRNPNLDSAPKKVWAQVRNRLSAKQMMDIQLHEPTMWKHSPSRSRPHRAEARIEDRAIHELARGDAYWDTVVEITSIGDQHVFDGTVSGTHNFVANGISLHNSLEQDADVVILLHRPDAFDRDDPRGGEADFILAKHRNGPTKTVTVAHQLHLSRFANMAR

[3] = biological target: G-protein coupled receptor 55 (Homo sapiens, UniProt Q9Y2T6); test: GPR55 agonists via beta-arrestin recruitment, primary screen, imaging, U2OS cells, beta-arrestin-GFP redistribution (AID 1961); format: functional
Chain of G-protein coupled receptor 55 (Q9Y2T6 whole entry): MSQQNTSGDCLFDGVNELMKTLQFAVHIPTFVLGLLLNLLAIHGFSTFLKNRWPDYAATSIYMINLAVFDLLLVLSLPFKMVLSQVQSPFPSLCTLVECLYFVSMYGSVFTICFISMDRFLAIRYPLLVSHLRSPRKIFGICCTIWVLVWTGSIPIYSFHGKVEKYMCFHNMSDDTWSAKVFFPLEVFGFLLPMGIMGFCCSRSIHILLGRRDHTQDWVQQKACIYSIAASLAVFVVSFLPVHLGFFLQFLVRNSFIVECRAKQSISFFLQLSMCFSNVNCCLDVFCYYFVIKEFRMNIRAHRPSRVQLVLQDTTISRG

[4] = cytotoxicity toward NIH3T3 fibroblasts, dose response, counter-screen, cell-based, ATP luminescence, mouse fibroblasts (AID 2010); format: functional;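 note: cells exposed to compound for about 90 hours before reading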
[5] = inhibitors of intracellular T. cruzi replication, confirmation, NIH3T3 host cells, beta-gal luminescence (AID 2044); format: functional, cell-based;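 note: intracellular parasites grown in NIH/3T3 mouse fibroblasts as host cells; luminescent beta-galactosidase reporter signal from transgenic T. cruzi replicating inside host cells; inhibitors lower the luminescence signal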
[6] = insulin promoter down-regulators in MIN6 cells, imaging, high-content screening, mouse beta cells (AID 1628); format: functional
[7] = cytotoxicity in MIN6 insulinoma cells, dose response, cytotoxicity control, cell-based, mouse insulinoma (AID 2122); format: functional;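 note: confirmatory high-throughput counterscreen run to flag cytotoxic compounds; mouse MIN-6 beta cells carrying an insulin promoter eGFP reporter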
[8] = inhibitors of firefly luciferase expression or activity, dose response, H4 neuroglioma cells, luminescence (AID 1990); format: functional, cell-based
Cytochrome P450 2D6 [9] = biological target: T4, Cytochrome P450 2D6 (Homo sapiens, UniProt P10635);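 note: CYP2D6 member of a cytochrome P450 panel assay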
T4 sequence (P10635 whole entry): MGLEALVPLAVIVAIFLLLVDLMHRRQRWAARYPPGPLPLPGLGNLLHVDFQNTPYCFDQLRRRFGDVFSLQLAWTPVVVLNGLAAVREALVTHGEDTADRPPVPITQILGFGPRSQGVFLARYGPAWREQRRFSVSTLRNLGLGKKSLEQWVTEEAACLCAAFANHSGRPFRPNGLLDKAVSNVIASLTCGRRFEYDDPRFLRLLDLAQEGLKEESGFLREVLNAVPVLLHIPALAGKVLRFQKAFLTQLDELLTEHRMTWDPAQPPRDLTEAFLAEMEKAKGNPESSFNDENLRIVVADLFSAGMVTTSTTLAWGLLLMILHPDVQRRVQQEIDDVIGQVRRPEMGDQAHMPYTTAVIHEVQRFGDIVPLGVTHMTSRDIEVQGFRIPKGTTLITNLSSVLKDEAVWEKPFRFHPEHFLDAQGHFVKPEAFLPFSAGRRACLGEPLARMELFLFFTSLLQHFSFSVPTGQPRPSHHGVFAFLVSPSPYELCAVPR

[10] = inhibitors of SNCA 5'UTR-driven reporter translation, confirmation, H4 neuroglioma cells, luminescence (AID 1988); format: functional, cell-based
[11] = Luminescence Cell-Based Dose Response HTS to Identify Inhibitors of 5'UTR Stem-Loop Driven Prion Protein mRNA Translation in H4 Neuroglioblastoma Cells. [Related pubchem assays: 1827 (Project Summary), 1813 (Primary HTS)]; format: functional
Cytochrome P450 2C19 = Cytochrome P450 2C19 (Homo sapiens, UniProt P33261); test: Cytochrome panel assay with activity outcomes. Panel member name: p450-cyp2c19 Compounds with AC50 equal or less than 10 uM are considered active; format: functional
Chain of Cytochrome P450 2C19 (P33261 whole entry): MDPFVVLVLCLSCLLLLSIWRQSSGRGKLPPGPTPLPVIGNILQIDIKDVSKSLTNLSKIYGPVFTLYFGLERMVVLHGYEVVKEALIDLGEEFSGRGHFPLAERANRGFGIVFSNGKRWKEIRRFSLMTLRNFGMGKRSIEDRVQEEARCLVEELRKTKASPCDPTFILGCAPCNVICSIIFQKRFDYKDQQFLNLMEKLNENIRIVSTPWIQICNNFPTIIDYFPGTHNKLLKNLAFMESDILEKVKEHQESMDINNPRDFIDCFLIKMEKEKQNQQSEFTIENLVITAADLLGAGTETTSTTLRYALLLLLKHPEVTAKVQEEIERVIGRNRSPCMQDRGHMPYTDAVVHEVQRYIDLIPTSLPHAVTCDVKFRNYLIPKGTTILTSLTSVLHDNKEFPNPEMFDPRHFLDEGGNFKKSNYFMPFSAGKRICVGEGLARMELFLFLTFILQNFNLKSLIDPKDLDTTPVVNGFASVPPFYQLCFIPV

[12] = growth suppression of beta-catenin-knockout colon cells, dose response, cell-based, HCT116, human colon tumor (AID 1045); format: functional;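 note: HCT116 colon tumor cells with beta catenin knocked out; cells exposed to compound for 60 hours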
[13] = growth suppression of PTEN-null colon cells, dose response, cell-based, HCT116 PTEN knockout (AID 1047); format: functional;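 note: HCT116 colon tumor cells with PTEN knocked out; cells exposed to compound for 60 hours before readout; potency for loss of cell viability measured by luminescence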
Cytochrome P450 2D6 [14] = biological target: T4, Cytochrome P450 2D6; remark: listed apart in the source
[15] = biological target: DNA dC->dU-editing enzyme APOBEC-3A (Homo sapiens, UniProt P31941); test: Dose Response confirmation of small molecule APOBEC3A DNA Deaminase Inhibitors via a fluorescence-based single-stranded DNA deaminase assay. [Related pubchem assays (depositor defined):AID493011, AID493024]; format: functional
Chain of DNA dC->dU-editing enzyme APOBEC-3A (P31941 whole entry): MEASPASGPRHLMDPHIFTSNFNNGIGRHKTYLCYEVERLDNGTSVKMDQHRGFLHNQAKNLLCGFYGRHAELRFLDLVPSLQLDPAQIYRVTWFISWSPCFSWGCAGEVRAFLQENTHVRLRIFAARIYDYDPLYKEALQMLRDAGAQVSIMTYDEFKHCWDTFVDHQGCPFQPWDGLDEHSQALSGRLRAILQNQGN

[16] = biological target: DNA dC->dU-editing enzyme APOBEC-3G (Homo sapiens, UniProt Q9HC16); format: functional;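 note: Dose-response counterscreen measuring inhibition of APOBEC3G DNA deaminase activity, run while confirming APOBEC3A inhibitors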
Chain of DNA dC->dU-editing enzyme APOBEC-3G (Q9HC16 whole entry): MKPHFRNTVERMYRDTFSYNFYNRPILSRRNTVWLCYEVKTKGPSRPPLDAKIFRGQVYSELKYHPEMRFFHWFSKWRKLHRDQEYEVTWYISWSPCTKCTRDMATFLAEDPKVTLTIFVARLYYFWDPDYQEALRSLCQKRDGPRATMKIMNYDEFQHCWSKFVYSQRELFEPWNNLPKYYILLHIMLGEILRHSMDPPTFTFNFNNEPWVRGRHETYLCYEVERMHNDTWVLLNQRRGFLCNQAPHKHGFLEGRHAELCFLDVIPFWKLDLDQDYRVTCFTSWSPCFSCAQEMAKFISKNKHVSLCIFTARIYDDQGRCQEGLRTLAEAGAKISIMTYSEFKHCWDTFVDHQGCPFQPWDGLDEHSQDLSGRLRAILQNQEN

Cytochrome P450 2C9 = Cytochrome P450 2C9 (Homo sapiens, UniProt P11712)
Chain of Cytochrome P450 2C9 (P11712 whole entry): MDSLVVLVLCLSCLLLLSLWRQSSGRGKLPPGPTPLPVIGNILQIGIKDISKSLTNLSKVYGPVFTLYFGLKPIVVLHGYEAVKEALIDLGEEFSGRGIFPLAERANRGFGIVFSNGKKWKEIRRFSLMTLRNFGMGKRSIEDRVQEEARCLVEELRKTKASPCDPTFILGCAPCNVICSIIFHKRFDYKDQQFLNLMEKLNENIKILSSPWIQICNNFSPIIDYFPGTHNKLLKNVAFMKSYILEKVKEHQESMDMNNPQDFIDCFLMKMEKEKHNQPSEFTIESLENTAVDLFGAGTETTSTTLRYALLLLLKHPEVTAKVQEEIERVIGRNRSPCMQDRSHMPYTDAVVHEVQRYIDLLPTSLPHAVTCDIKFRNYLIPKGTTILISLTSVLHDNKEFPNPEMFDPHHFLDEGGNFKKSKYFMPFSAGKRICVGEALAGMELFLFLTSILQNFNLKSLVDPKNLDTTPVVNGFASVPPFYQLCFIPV

Large T antigen = Large T antigen (Simian virus 40, UniProt P03070); format: functional, Betapolyomavirus macacae;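 note: Confirmatory-stage PubChem screen for compounds that inhibit SV40 T antigen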
Chain of Large T antigen (P03070 whole entry): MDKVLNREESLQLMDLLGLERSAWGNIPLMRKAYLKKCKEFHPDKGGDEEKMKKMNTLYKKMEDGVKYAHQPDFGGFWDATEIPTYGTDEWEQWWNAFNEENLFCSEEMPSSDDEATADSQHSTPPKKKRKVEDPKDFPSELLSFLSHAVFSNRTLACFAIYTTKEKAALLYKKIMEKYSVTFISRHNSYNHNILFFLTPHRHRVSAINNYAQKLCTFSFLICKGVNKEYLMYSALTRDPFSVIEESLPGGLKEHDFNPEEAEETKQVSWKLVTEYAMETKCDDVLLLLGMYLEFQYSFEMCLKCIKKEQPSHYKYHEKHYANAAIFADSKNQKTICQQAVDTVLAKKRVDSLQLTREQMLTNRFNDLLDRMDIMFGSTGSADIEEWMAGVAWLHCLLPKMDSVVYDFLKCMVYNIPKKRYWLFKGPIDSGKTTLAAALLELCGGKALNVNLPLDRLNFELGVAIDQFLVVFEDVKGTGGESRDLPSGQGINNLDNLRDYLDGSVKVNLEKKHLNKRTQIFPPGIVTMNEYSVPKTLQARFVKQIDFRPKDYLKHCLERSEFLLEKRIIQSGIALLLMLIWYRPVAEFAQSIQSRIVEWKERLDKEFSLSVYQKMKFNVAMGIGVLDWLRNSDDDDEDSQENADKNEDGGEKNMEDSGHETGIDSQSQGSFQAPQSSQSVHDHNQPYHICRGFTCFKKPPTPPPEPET

CC1C(=O)C(C)C(c2cc(Cl)ccc2O)NC1c1cc(Cl)ccc1O (configuration not stated)
EC50 (Streptococcus): 11.5 µM (active) | EC50 (Protein RecA): 8.24 µM (active) | EC50 (Streptokinase A): > 150 µM (not active) | EC50 [1]: 1.4 µM (active) | AC50 [2]: 4.77 µM (active) | EC50 [3]: > 32 µM (inactive)

CCC(C)C(=O)Nc1nc(C)c(-c2csc(Nc3ccc(Cl)cc3)n2)s1 (configuration not stated)
EC50 [4]: > 60 µM (not active) | EC50 [5]: 1.75 µM (active) | IC50 [6]: 2.48 µM (active) | IC50 [7]: 3.05 µM (active)

O=C1NC(=O)N(CCC2=CCCCC2)C(=O)/C1=C\Nc1cccc(F)c1
EC50 [8]: > 120 µM (not active) | AC50 (Cytochrome P450 2D6 [9]): inconclusive | EC50 [10]: 41.4 µM (active) | EC50 [11]: > 120 µM (not active) | AC50 (Cytochrome P450 2C19; read-out: AC50): 10 µM (inconclusive)

CCC(C)NCC(=O)Nc1ccc(-c2nc3cc(NC(=O)CNC(C)CC)ccc3o2)cc1 (configuration not stated)
EC50 [12]: 2.98 µM (active) | EC50 [13]: 4.19 µM (active) | IC50 [6]: 2.17 µM (active) | IC50 [7]: 1.66 µM (active)

C[N+](C)(C)CCN(Cc1ccc(Cl)cc1)c1ccccn1.[I-]
AC50 (Cytochrome P450 2D6 [14]): 0.251 µM (inconclusive) | IC50 [15]: 2.05 µM (active) | IC50 [16]: 2.01 µM (active) | AC50 (Cytochrome P450 2C9): inconclusive | AC50 (Cytochrome P450 2C19): inconclusive

CCn1c(C)nc2cc(S(=O)(=O)Nc3ccc(C)cc3)ccc21
IC50 [15]: 4.42 µM (active) | IC50 [16]: 4.4 µM (active)

COc1ccc(NCN2C(=O)C3C4C=CC(C4)C3C2=O)cc1 (configuration not stated)
IC50 (Large T antigen): 23.2 µM (active)
